Results as given in ChEMBL document CHEMBL4834434, “Discovery of Novel and Potent N-Methyl-d-aspartate Receptor Positive Allosteric Modulators with Antidepressant-like Activity in Rodent Models” (J Med Chem, 2021).
pEC50, pIC50: −log10 of the molar value. Calls of active or inactive are those of the source. The rule behind the calls is not given here.

Experiments:
[1] = MRT in ICR mouse at 3 mg/kg, iv measured up to 24 hrs by HPLC-MS/MS analysis; format: ADME, organism-based; conditions: in vivo
[2] = Half life in ICR mouse at 3 mg/kg, iv measured up to 24 hrs by HPLC-MS/MS analysis; format: ADME, organism-based; conditions: in vivo
[3] = Drug concentration in ICR mouse brain at 10 mg/kg, po measured at 0.5 hrs by LC-MS/MS analysis; format: ADME, organism-based; conditions: read-out: Ct
[4] = Clearance in ICR mouse at 3 mg/kg, iv measured up to 24 hrs by HPLC-MS/MS analysis; format: ADME, organism-based; conditions: in vivo
L929 = test: Cytotoxicity against mouse L929 cells assessed as cell growth inhibition measured after 48 hrs by CCK8 assay; format: cell-based; conditions: L929, 48 h
[5] = MRT in ICR mouse at 10 mg/kg, po measured up to 24 hrs by HPLC-MS/MS analysis; format: ADME, organism-based; conditions: in vivo
[6] = Drug concentration in ICR mouse plasma at 10 mg/kg, po measured at 0.5 hrs by LC-MS/MS analysis; format: ADME, organism-based
hERG (KCNH2) [7] = target: T1, hERG (KCNH2) (Homo sapiens, UniProt Q12809); test: Inhibition of human ERG expressed in CHO cells at 100 uM with holding potential at -80 to -60 mV for 500s followed by raise in potential at +30 mV for 2 sec and subsequent repolarization to -60 mV for 2 sec by whole-cell patch clamp method relative to control; format: cell-based; conditions: CHO cells expressing human ERG
T1 sequence (Q12809 whole entry): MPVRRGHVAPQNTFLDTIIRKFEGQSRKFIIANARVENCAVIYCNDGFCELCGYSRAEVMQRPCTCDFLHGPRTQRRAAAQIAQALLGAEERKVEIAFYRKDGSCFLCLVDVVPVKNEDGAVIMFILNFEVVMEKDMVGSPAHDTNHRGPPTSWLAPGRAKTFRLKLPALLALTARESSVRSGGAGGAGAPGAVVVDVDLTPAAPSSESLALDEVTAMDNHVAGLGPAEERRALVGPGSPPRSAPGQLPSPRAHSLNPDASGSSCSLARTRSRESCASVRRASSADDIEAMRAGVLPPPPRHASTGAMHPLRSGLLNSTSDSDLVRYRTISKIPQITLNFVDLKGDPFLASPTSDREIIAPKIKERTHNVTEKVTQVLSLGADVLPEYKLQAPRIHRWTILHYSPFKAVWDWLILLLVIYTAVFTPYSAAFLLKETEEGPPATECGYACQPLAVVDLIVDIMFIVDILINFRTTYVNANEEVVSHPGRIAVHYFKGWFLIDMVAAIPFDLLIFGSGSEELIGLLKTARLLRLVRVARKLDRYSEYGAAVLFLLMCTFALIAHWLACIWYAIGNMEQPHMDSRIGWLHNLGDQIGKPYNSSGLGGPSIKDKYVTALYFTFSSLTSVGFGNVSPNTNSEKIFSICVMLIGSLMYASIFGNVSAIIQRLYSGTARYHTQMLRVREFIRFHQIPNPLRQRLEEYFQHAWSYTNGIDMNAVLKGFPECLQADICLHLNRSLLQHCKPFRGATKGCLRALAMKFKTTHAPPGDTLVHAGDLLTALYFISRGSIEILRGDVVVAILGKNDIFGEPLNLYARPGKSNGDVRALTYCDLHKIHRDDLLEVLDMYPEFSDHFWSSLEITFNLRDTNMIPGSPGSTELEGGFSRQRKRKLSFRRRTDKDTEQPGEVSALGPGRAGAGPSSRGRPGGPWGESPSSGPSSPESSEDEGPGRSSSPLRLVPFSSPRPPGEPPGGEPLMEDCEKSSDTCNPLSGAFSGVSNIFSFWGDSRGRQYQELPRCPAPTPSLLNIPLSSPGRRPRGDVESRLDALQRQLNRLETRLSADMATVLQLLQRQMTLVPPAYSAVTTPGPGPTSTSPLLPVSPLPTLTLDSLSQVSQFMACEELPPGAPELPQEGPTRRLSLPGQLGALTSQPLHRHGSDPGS

[8] = Drug concentration in ICR mouse brain at 3 mg/kg, iv measured at 0.5 hrs by LC-MS/MS analysis; format: ADME, organism-based; conditions: read-out: Ct
hERG (KCNH2) [9] = target: T1, hERG (KCNH2); test: Inhibition of human ERG expressed in CHO cells at 30 uM with holding potential at -80 to -60 mV for 500s followed by raise in potential at +30 mV for 2 sec and subsequent repolarization to -60 mV for 2 sec by whole-cell patch clamp method relative to control; format: cell-based; conditions: CHO cells expressing human ERG
[10] = Ratio of drug concentration in brain to plasma in ICR mouse at 10 mg/kg, po measured at 0.5 hrs by LC-MS/MS analysis; format: ADME, organism-based; conditions: read-out: BPR
[11] = Cytotoxicity against African green monkey Vero cells assessed as cell growth inhibition at 120 uM measured after 48 hrs by CCK8 assay relative to control; format: cell-based; conditions: chlorocebus sabaeus
[12] = Cytotoxicity against mouse L929 cells assessed as cell growth inhibition at 120 uM measured after 48 hrs by CCK8 assay relative to control; format: cell-based
[13] = Effect on locomotor activity in ICR mouse assessed as hyperlocomotion at 10 mg/kg, ip measured after 90 mins; format: ADME, organism-based; conditions: in vivo, 1.5 h
[14] = Half life in ICR mouse at 10 mg/kg, po measured up to 24 hrs by HPLC-MS/MS analysis; format: ADME, organism-based; conditions: in vivo
Mus musculus [15] = test: Antidepressant activity in ICR mouse aassessed as inhibition of apomorphine-induced climbing behaviour at 10 mg/kg, ip administered prior to APO challenge and measured after 30 mins; format: functional, organism-based
[16] = AUC (0 to t) in ICR mouse at 10 mg/kg, po measured up to 24 hrs by HPLC-MS/MS analysis; format: ADME, organism-based; design: route oral, dose 10 mg/kg, time <=24; conditions: in vivo
[17] = Tmax in ICR mouse at 10 mg/kg, po measured up to 24 hrs by HPLC-MS/MS analysis; format: ADME, organism-based; conditions: in vivo
Mus musculus [18] = test: Antidepressant activity in ICR mouse assessed as decrease in immobility time at 30 mg/kg, ip measured after 26 mins by forced swim test; format: functional, organism-based
[19] = Drug concentration in ICR mouse plasma at 3 mg/kg, iv measured at 0.5 hrs by LC-MS/MS analysis; format: ADME, organism-based
[20] = […] in ICR mouse assessed as change in behaviour at 30 mg/kg, po administered for 28 days; format: organism-based; conditions: in vivo, 672 h, time 28 day
[21] = […] in ICR mouse assessed as decrease in body weight at 30 mg/kg, po administered for 28 days; format: organism-based; conditions: in vivo, 672 h, time 28 day
[22] = Volume of distribution at steady state in ICR mouse at 3 mg/kg, iv measured up to 24 hrs by HPLC-MS/MS analysis; format: ADME, organism-based; conditions: in vivo, read-out: Vdss
Vero = test: Cytotoxicity against African green monkey Vero cells assessed as cell growth inhibition measured after 48 hrs by CCK8 assay; format: cell-based; conditions: Chlorocebus sabaeus
HEK293 = test: Cytotoxicity against human HEK293 cells assessed as cell growth inhibition measured after 48 hrs by CCK8 assay; format: cell-based; conditions: HEK293, 48 h
[23] = Drug concentration in ICR mouse plasma at 3 mg/kg, iv measured at 2 hrs; format: ADME, organism-based
[24] = Drug concentration in ICR mouse brain at 10 mg/kg, po measured at 2 hrs by LC-MS/MS analysis; format: ADME, organism-based; conditions: read-out: Ct
Mus musculus [25] = test: Antidepressant activity in ICR mouse assessed as decrease in immobility time at 3 to 10 mg/kg, ip measured after 26 mins by forced swim test; format: functional, organism-based; conditions: dose 3-10 mg/kg
[26] = Cytotoxicity against mouse L929 cells assessed as cell growth inhibition at 60 uM measured after 48 hrs by CCK8 assay relative to control; format: cell-based
[27] = Effect on locomotor activity in ICR mouse assessed as hypolocomotion at 10 mg/kg, ip measured after 90 mins; format: ADME, organism-based; conditions: in vivo, 1.5 h
[28] = Drug concentration in ICR mouse brain at 3 mg/kg, iv measured at 2 hrs; format: ADME, organism-based; conditions: read-out: Ct
Glutamate NMDA receptor = test: Positive allosteric modulation of C57BL/6 mouse NMDA receptor assessed as potentiation of NMDA-induced current in presence of saturating glutamate by patch-clamp method; format: tissue-based, Brain
[29] = Ratio of drug concentration in brain to plasma in ICR mouse at 3 mg/kg, iv measured at 0.5 hrs by LC-MS/MS analysis; format: ADME, organism-based; conditions: read-out: BPR
[30] = Drug concentration in ICR mouse plasma at 10 mg/kg, po measured at 2 hrs by LC-MS/MS analysis; format: ADME, organism-based
[31] = AUC (0 to t) in ICR mouse at 3 mg/kg, iv measured up to 24 hrs by HPLC-MS/MS analysis; format: ADME, organism-based; design: route intravenous, dose 3 mg/kg, time <=24; conditions: in vivo
[32] = […] in ICR mouse assessed as body weight gain at 30 mg/kg, po administered for 28 days; format: organism-based; conditions: in vivo, 672 h, time 28 day
[33] = Cytotoxicity against human HEK293 cells assessed as cell growth inhibition at 120 uM measured after 48 hrs by CCK8 assay relative to control; format: cell-based
[34] = Oral bioavailability in ICR mouse at 10 mg/kg measured up to 24 hrs by HPLC-MS/MS analysis; format: ADME, organism-based; conditions: in vivo
[35] = Cytotoxicity against African green monkey Vero cells assessed as cell growth inhibition at 60 uM measured after 48 hrs by CCK8 assay relative to control; format: cell-based; conditions: chlorocebus sabaeus
[36] = Cmax in ICR mouse at 10 mg/kg, po measured up to 24 hrs by HPLC-MS/MS analysis; format: ADME, organism-based; design: route oral, dose 10 mg/kg, time <=24; conditions: in vivo
[37] = Cytotoxicity against human HEK293 cells assessed as cell growth inhibition at 60 uM measured after 48 hrs by CCK8 assay relative to control; format: cell-based
[38] = Acute toxicity in ip dosed ICR mouse assessed as lethal dose measured after 24 hrs; format: organism-based; conditions: in vivo
[39] = Ratio of drug concentration in brain to plasma in ICR mouse at 3 mg/kg, iv measured at 2 hrs by LC-MS/MS analysis; format: ADME, organism-based; conditions: read-out: BPR
[40] = Brain to blood partition coefficient of the compound; format: physicochemical, tissue-based; conditions: read-out: logBB (converted)
[41] = Ratio of drug concentration in brain to plasma in ICR mouse at 10 mg/kg, po measured at 2 hrs by LC-MS/MS analysis; format: ADME, organism-based; conditions: read-out: BPR

O=C(Nc1cc(Cl)cc(Cl)c1)c1ccc(Cn2nc(C(F)(F)F)cc2C(F)(F)F)o1
MRT [1]: 3.4 h
half-life [2]: 5 h
concentration at 0.5 h [3]: 93.4 ng/mL
clearance [4]: 30 mL/min/kg
pIC50 (L929): 4.53
MRT [5]: 4.7 h
concentration at 0.5 h [6]: 580 ng/mL
inhibition at 2 s, 100 µM (hERG (KCNH2) [7]): 68.4%
concentration at 0.5 h [8]: 73.9 ng/mL
inhibition at 2 s, 30 µM (hERG (KCNH2) [9]): 49.1%
Kp at 0.5 h [10]: 0.16
inhibition at 48 h, 120 µM [11]: 95.8%
inhibition at 48 h, 120 µM [12]: 90.6%
Activity [13]: Non-Toxic
half-life [14]: 5.7 h
Activity (Mus musculus [15]): inactive
AUC(0-t) at 24 h [16]: 4220 ng·h/mL
Tmax [17]: 2 h
Activity (Mus musculus [18]): Active
concentration at 0.5 h [19]: 506 ng/mL
Activity [20]: Non-Toxic
Activity [21]: Toxic
Vd [22]: 12.7 L/kg
pIC50 (Vero): 4.63
pIC50 (HEK293): 4.07
concentration at 2 h [23]: 304 ng/mL
concentration at 2 h [24]: 148 ng/mL
Activity (Mus musculus [25]): Active
inhibition at 48 h, 60 µM [26]: 84.3%
Activity [27]: Non-Toxic
concentration at 2 h [28]: 49 ng/mL
pEC50 (Glutamate NMDA receptor): 4.90
Kp at 0.5 h [29]: 0.14
concentration at 2 h [30]: 989 ng/mL
AUC(0-t) at 24 h [31]: 1750 ng·h/mL
Activity [32]: Non-Toxic
inhibition at 48 h, 120 µM [33]: 73.6%
bioavailability [34]: 72.2%
inhibition at 48 h, 60 µM [35]: 96.2%
Cmax [36]: 989 ng/mL
inhibition at 48 h, 60 µM [37]: 42%
LD50 at 24 h [38]: 1500 mg/kg
Kp at 2 h [39]: 0.16
Kp [40]: 3.98
Kp at 2 h [41]: 0.15
